{"source": "patent US20110053884A1", "about": "“POTENT COMBINATIONS OF […] DRUGS THAT SELECT FOR THE K65R MUTATION IN THE HIV POLYMERASE” (priority 2007, published 2011)", "key": {"HIV": {"test_system": "HIV", "experiment": "Randomized double blind placebo controlled study, HIV RNA viral load over 10 days of treatment", "format": "in vivo, human", "description": "(§1) Subjects with HIV RNA viral load (VL)≧5,000 copies/mL were enrolled and randomized 1:1:1 to DAPD 500 mg bid: DAPD 500 mg with AZT 300 mg bid: DAPD 500 mg with AZT 200 mg bid for 10 days. In each arm, subjects were randomized 3:1 to DAPD: placebo. VL was determined daily."}, "[1]": {"conditions": "Day 20; rank order of treatment groups (mg bid)", "description": "Twenty-four subjects were enrolled [placebo (n=2), AZT 200 mg (n=2), AZT 300 mg (n=2), DAPD 500 mg (n=6), DAPD/AZT 200 mg (n=6), and DAPD/AZT 300 mg (n=6)] and treated for 10 days. Hematological indices including hemoglobin (g/dl) and mean corpuscular volume (MCV, femtoliters) were measured at Screening, Day 1 prior to receiving treatment and Days 5, 10 and 20."}, "TK1 [2]": {"molecular_target": "T1, TK1 (Homo sapiens, UniProt P04183)", "T1 sequence (P04183 1-234)": "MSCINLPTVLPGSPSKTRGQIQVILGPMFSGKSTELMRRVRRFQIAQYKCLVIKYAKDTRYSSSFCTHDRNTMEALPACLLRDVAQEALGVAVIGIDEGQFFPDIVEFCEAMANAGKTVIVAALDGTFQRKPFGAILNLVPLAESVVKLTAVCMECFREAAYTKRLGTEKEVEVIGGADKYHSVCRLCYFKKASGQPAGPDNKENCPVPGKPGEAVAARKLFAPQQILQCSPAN", "experiment": "Phosphorylation of AZT to AZT-MP by thymidine kinase", "format": "biochemical", "conditions": "activated PBM cells", "excerpt": "(§2) The initial intracellular phosphorylation step of AZT is catalyzed by thymidine kinase (TK). The most likely enzyme for monophosphorylation to AZT-MP is TK1, which is located primarily in the cytosol of cells in S-phase. […] Since the initial phosphorylation step of AZT to AZT-MP remains approximately linear with dose (5, 22), the Vmax,TK1 was assumed constant between individuals. […] The maximal rates of phosphorylation to AZT-MP and AZT-DP (Vmax,AZT-MP and Vmax,ThymK, respectively) in activated PBM cells were calculated using previously published enzyme kinetics measurements from a cohort of HIV-1 infected individuals who were not previously treated with AZT (36). […] The calculation assumed a volume of 0.21 μl/10^6, corresponding to a protein content of 0.12 mg (3, 33). The final phosphorylation step to active AZT-TP is catalyzed by nucleoside diphosphate kinase and is not rate limiting under physiological conditions. […] Therefore, the conversion rate of AZT-DP to AZT-TP (KDP,TP) was also assumed to be 0.28 h^−1. The assumed distributions for the rate constants describing the cellular phosphorylation and dephosphorylation of AZT are contained in Table 2."}, "thymidylate kinase [3]": {"molecular_target": "T2, thymidylate kinase (Homo sapiens, UniProt P23919)", "T2 sequence (P23919 1-212)": "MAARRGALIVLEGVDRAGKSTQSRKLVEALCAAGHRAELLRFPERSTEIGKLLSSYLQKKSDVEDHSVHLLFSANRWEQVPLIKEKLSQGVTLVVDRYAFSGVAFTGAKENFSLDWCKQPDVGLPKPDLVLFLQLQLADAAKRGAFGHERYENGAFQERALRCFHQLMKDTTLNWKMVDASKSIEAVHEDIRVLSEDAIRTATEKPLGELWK", "experiment": "Phosphorylation of AZT-MP to AZT-DP by thymidylate kinase", "format": "biochemical", "conditions": "activated PBM cells of HIV-1 infected individuals not previously treated with AZT; SD of log-transformed values 0.89", "excerpt": "as §2"}, "[4]": {"conditions": "single dose, intravenous and oral, HIV-1 infected individuals; cited from earlier work"}, "TK1 [5]": {"molecular_target": "T1, TK1", "conditions": "concentration at 50% of maximal metabolism rate; read-out: Km versus TK1; cited from earlier work"}, "thymidylate kinase [6]": {"molecular_target": "T2, thymidylate kinase", "conditions": "cited from earlier work; for Km: substrate AZT-MP, read-out: Km versus thymidylate kinase (Km,ThmK)"}, "HIV-1": {"test_system": "HIV-1", "conditions": "incubation up to week 28; cited from earlier work"}, "PBM cells": {"test_system": "PBM cells", "conditions": "cited from earlier work; for Rate of dephosphorylation: in vivo"}, "[7]": {"molecular_target": "wild-type HIV-1 reverse transcriptase (Human immunodeficiency virus type 1 group M subtype B, UniProt P03366)", "conditions": "cited from earlier work"}, "[8]": {"experiment": "Tolerability in the DAPD/AZT clinical study", "format": "in vivo, human", "conditions": "10 days of treatment, HIV-infected subjects", "description": "as §1"}, "[9]": {"conditions": "cited from earlier work"}}}
{"smiles": "Cc1cn([C@H]2C[C@H](N=[N+]=[N-])[C@@H](CO)O2)c(=O)[nH]c1=O", "note": "[AZT, 3′-azido-3′-deoxythymidine]", "values": [{"measurement": "Mean VL ± SD from baseline", "setting": "HIV; Day 9, AZT 200 mg bid alone", "value": "−0.80", "unit": "log10 copies/mL"}, {"measurement": "Mean VL ± SD from baseline", "setting": "HIV; Day 9, AZT 300 mg bid alone", "value": "−0.35", "unit": "log10 copies/mL"}, {"measurement": "Mean VL ± SD from baseline", "setting": "HIV; Day 10, AZT 200 mg bid alone", "value": "−0.65", "unit": "log10 copies/mL"}, {"measurement": "Mean VL ± SD from baseline", "setting": "HIV; Day 10, AZT 300 mg bid alone", "value": "−0.45", "unit": "log10 copies/mL"}, {"measurement": "Mean VL ± SD from baseline", "setting": "HIV; Day 11, AZT 200 mg bid alone", "value": "−0.70", "unit": "log10 copies/mL"}, {"measurement": "Mean VL ± SD from baseline", "setting": "HIV; Day 11, AZT 300 mg bid alone", "value": "−0.60", "unit": "log10 copies/mL"}, {"measurement": "Trend in decrease in hemoglobin from Baseline", "setting": "[1]", "value": "DAPD/AZT 300≧AZT 300≧DAPD/AZT 200>AZT 200>DAPD>placebo"}, {"measurement": "Trend in increase in MCV from Baseline", "setting": "[1]", "value": "DAPD/AZT 300>AZT 300>DAPD/AZT 200>AZT 200>placebo>DAPD"}, {"measurement": "Vmax,TK1, maximal rate of phosphorylation to AZT-MP", "setting": "TK1 [2]", "value": 0.86, "unit": "μmol/l per hr"}, {"measurement": "Vmax,ThymK, median", "setting": "thymidylate kinase [3]", "value": 0.13, "unit": "μmol/l per hr"}, {"measurement": "Systemic clearance (Cl)", "setting": "[4]", "value": "18.3 to 25", "unit": "mL/min/kg"}, {"measurement": "Volume of distribution (Vss)", "setting": "[4]", "value": "1.3 to 1.4", "unit": "L/kg"}, {"measurement": "Km", "setting": "TK1 [5]", "value": 0.6, "unit": "µM"}, {"measurement": "Km", "setting": "thymidylate kinase [6]", "value": 12, "unit": "µM"}, {"measurement": "Drug resistant mutations selected in vitro", "setting": "HIV-1", "value": "a mixture of K70K/R mutations at week 25"}, {"measurement": "Accumulation of AZT nucleotides, stimulated versus resting PBM cells", "setting": "PBM cells", "value": "60 to 150", "unit": "times"}, {"measurement": "Rate of dephosphorylation", "setting": "PBM cells", "value": 0.28, "unit": "h⁻¹"}]}
{"smiles": "Cc1cn([C@H]2C[C@H](N=[N+]=[N-])[C@@H](COP(=O)(O)OP(=O)(O)O)O2)c(=O)[nH]c1=O", "note": "[AZT-DP, AZT-diphosphate]", "values": [{"measurement": "Rate of dephosphorylation", "setting": "PBM cells", "value": 0.28, "unit": "h⁻¹"}]}
{"smiles": "Cc1cn([C@H]2C[C@H](N=[N+]=[N-])[C@@H](COP(=O)(O)O)O2)c(=O)[nH]c1=O", "note": "[AZT-MP, zidovudine-monophosphate]", "values": [{"measurement": "Vmax,ThymK, median", "setting": "thymidylate kinase [3]", "value": 0.13, "unit": "μmol/l per hr"}, {"measurement": "Km", "setting": "thymidylate kinase [6]", "value": 12, "unit": "µM"}, {"measurement": "Vmax,AZT-MP as share of the Vmax versus thymidine-MP", "setting": "thymidylate kinase [6]; thymidylate kinase", "value": 0.3, "unit": "%"}, {"measurement": "Rate of dephosphorylation", "setting": "PBM cells", "value": 0.28, "unit": "h⁻¹"}]}
{"smiles": "Cc1cn([C@H]2C[C@H](N=[N+]=[N-])[C@@H](CO[P@](=O)(O)O[P@](=O)(O)OP(=O)(O)O)O2)c(=O)[nH]c1=O", "note": "[AZT-TP, zidovudine-triphosphate]", "values": [{"measurement": "IC50", "setting": "[7]", "value": "~35", "unit": "nM"}, {"measurement": "Rate of dephosphorylation", "setting": "PBM cells", "value": 0.28, "unit": "h⁻¹"}]}
{"smiles": "Nc1nc(N)c2ncn([C@H]3CO[C@@H](CO)O3)c2n1", "note": "[DAPD, (−)-β-D-2,6-diaminopurine dioxolane]", "values": [{"measurement": "Mean VL ± SD from baseline", "setting": "HIV; Day 9, DAPD 500 mg bid alone", "value": "−0.83 ± 0.61", "unit": "log10 copies/mL"}, {"measurement": "Mean VL ± SD from baseline", "setting": "HIV; Day 10, DAPD 500 mg bid alone", "value": "−1.07 ± 0.80", "unit": "log10 copies/mL"}, {"measurement": "Mean VL ± SD from baseline", "setting": "HIV; Day 11, DAPD 500 mg bid alone", "value": "−1.03 ± 0.59", "unit": "log10 copies/mL"}, {"measurement": "Trend in decrease in hemoglobin from Baseline", "setting": "[1]", "value": "DAPD/AZT 300≧AZT 300≧DAPD/AZT 200>AZT 200>DAPD>placebo"}, {"measurement": "Trend in increase in MCV from Baseline", "setting": "[1]", "value": "DAPD/AZT 300>AZT 300>DAPD/AZT 200>AZT 200>placebo>DAPD"}, {"measurement": "Tolerability", "setting": "[8]", "value": "well tolerated"}, {"measurement": "Drug resistant mutations selected in vitro", "setting": "HIV-1", "value": "a mixture of K65R and L74V at week 20"}]}
{"smiles": "Nc1nc2c(ncn2[C@H]2CO[C@@H](CO)O2)c(=O)[nH]1", "note": "[DXG, beta-D-(2R,4R)-1,3-dioxolane guanosine]", "values": [{"measurement": "Cellular triphosphate half-life", "setting": "[9]", "value": "~9.5", "unit": "h"}]}
{"smiles": "C[C@H](Cn1cnc2c(N)ncnc21)OCP(=O)(O)O", "note": "[tenofovir, 9-R-2-phosphonomethoxypropyl adenine]", "values": [{"measurement": "Cellular triphosphate half-life", "setting": "[9]", "value": "> 60", "unit": "h"}]}
